Laboratory results from PubChem BioAssay (NCI).
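Values below derive from 48-hour exposures of cells grown in 96-well plates, with endpoints linearly interpolated between the two concentrations bracketing the appropriate inhibition level. The concentration for full growth arrest is given as TGI.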 Where a SMILES comes first, the peptide text is derived from it. The star is where a group is joined. Fmoc = O=C(OCC1c2ccccc2-c2ccccc21)*; OtBu = CC(C)(C)O*

Assays:
Assay in all cases: DTP human tumour cell line panel, 48 h
SR leukemia = test system: SR leukemia
SF-539 CNS = test system: SF-539 CNS
NCI-H226 lung = test system: NCI-H226 lung
MALME-3M melanoma = test system: MALME-3M melanoma
NCI/ADR-RES ovarian = test system: NCI/ADR-RES ovarian
786-0 renal = test system: 786-0 renal
KM12 colon = test system: KM12 colon
HT29 colon = test system: HT29 colon
M14 melanoma = test system: M14 melanoma
SK-MEL-28 melanoma = test system: SK-MEL-28 melanoma
SNB-75 CNS = test system: SNB-75 CNS
HCC-2998 colon = test system: HCC-2998 colon
K-562 leukemia = test system: K-562 leukemia
SF-295 CNS = test system: SF-295 CNS
HCT-116 colon = test system: HCT-116 colon
HOP-92 NSCLC = test system: HOP-92 NSCLC

Compound	TGI (SR leukemia) [µM]	TGI (SF-539 CNS) [µM]	TGI (NCI-H226 lung) [µM]	TGI (MALME-3M melanoma) [µM]	TGI (NCI/ADR-RES ovarian) [µM]	TGI (786-0 renal) [µM]	TGI (KM12 colon) [µM]	TGI (HT29 colon) [µM]	TGI (M14 melanoma) [µM]	TGI (SK-MEL-28 melanoma) [µM]	TGI (SNB-75 CNS) [µM]	TGI (HCC-2998 colon) [µM]	TGI (K-562 leukemia) [µM]	TGI (SF-295 CNS) [µM]	TGI (HCT-116 colon) [µM]	TGI (HOP-92 NSCLC) [µM]
CCOC1CN=C(Nc2cccc3ccccc23)S1 (stereo not drawn)	> 10	> 10	> 10	> 10	> 10	> 10	> 10	> 10	> 10	> 10	> 10	> 10	> 10	> 10	> 10	> 10
CNC(=O)C(C)NC(=O)C(Cc1ccccc1)NC(=O)c1ccccc1 (stereo not drawn)	> 100	> 100	> 100	> 100	> 100	> 100	> 100	> 100	> 100	> 100	> 100	> 100	> 100	> 100	> 100	> 100
CC(C)C(NC(=O)OCC1c2ccccc2-c2ccccc21)C(=O)NC(CCC(=O)OC(C)(C)C)C(=O)OC(C)(C)C (stereo not drawn) (Fmoc-Val-Glu(OtBu)-OtBu; configuration not given here)	> 100	> 92	> 100	> 100	> 100	> 100	> 100	> 100	> 100	> 100	> 100	> 100	> 100	> 89.1	> 100	> 100
